The target in one test is T1, PPARγ LBD Q286P (Homo sapiens, UniProt P37231, Q314P).
T1 construct: PPARγ LBD (residues 195–477 in PPARγ1 numbering) was cloned into the expression vector pET-28b(+); made in house; host or cells: Escherichia coli Rosetta 2(DE3)
T1 sequence (P37231 195-477 isoform P37231-2 Q286P): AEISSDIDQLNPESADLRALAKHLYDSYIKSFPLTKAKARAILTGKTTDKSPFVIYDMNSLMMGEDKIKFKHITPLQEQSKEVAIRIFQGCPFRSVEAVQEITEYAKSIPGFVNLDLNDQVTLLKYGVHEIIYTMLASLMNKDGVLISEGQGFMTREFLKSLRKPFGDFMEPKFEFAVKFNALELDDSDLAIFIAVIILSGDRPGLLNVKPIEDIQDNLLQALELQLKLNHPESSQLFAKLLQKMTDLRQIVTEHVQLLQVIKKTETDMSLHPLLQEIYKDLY
Description: ITC binding of endogenous ligands to PPARγ LBD Q286P. The conditions noted are these: PBS pH 7.2, 25 °C, ligand 0.9 mM. The protocol:
(§1) Since PPARγ is physiologically regulated by endogenous ligands, it is possible that the activation of PPARγ mutants would be induced upon binding to known endogenous PPARγ ligands. […] […]. […] […].
(§2) All the measurements were conducted in the buffer of PBS pH 7.2 at 25 °C. The ligands filled in the syringe were titrated into the proteins in the cell using 19 injections of 2 μL and an initial injection of 0.4 μL with 150 s equilibration between injections. The final protein concentrations of PPARγ LBD WT and mutants were 60 μM for 15d-PGJ2 at the ligand concentration of 900 μM and 45 μM for 13S-HODE at the ligand concentration of 900 μM, respectively. The obtained data were analyzed using Origin 7.0 software.

Another test has as its target T2, PPARγ LBD F287Y (Homo sapiens, UniProt P37231, F315Y).
T2 construct: PPARγ LBD (residues 195–477 in PPARγ1 numbering) was cloned into the expression vector pET-28b(+); made in house; host or cells: Escherichia coli Rosetta 2(DE3)
T2 sequence (P37231 195-477 isoform P37231-2 F287Y): T1 sequence (P37231 195-477 isoform P37231-2 Q286P) with P92Q, F93Y
Description: ITC binding of endogenous ligands to PPARγ LBD F287Y. The settings on record: PBS pH 7.2, 25 °C, ligand 0.9 mM. Here is the method:
as §1, §2

In another test the target is T3, PPARγ LBD WT (Homo sapiens, UniProt P37231).
T3 construct: PPARγ LBD (residues 195–477 in PPARγ1 numbering) was cloned into the expression vector pET-28b(+); made in house; host or cells: Escherichia coli Rosetta 2(DE3)
T3 sequence (P37231 195-477 isoform P37231-2): T1 sequence (P37231 195-477 isoform P37231-2 Q286P) with P92Q
Description: ITC binding of endogenous ligands to PPARγ LBD WT. The conditions noted are these: PBS pH 7.2, 25 °C, ligand 0.9 mM. The protocol:
as §1, §2

A further test concerns the target T4, PPARγ LBD R280C (Homo sapiens, UniProt P37231, R308C).
T4 construct: PPARγ LBD (residues 195–477 in PPARγ1 numbering) was cloned into the expression vector pET-28b(+); made in house; host or cells: Escherichia coli Rosetta 2(DE3)
T4 sequence (P37231 195-477 isoform P37231-2 R280C): T1 sequence (P37231 195-477 isoform P37231-2 Q286P) with R86C, P92Q
As to the kind of experiment: ITC binding of endogenous ligands to PPARγ LBD R280C. The settings on record: PBS pH 7.2, 25 °C, ligand 0.9 mM. Here is the method: as §1, §2

Another test concerns the target T5, PPARγ LBD S289C (Homo sapiens, UniProt P37231, S317C).
T5 construct: PPARγ LBD (residues 195–477 in PPARγ1 numbering) was cloned into the expression vector pET-28b(+); made in house; host or cells: Escherichia coli Rosetta 2(DE3)
T5 sequence (P37231 195-477 isoform P37231-2 S289C): T1 sequence (P37231 195-477 isoform P37231-2 Q286P) with P92Q, S95C
As to the kind of experiment: ITC binding of endogenous ligands to PPARγ LBD S289C. The settings on record: PBS pH 7.2, 25 °C, ligand 0.9 mM. Here is the method: as §1, §2

Another test addresses T6, PPARγ LBD Q286E (Homo sapiens, UniProt P37231, Q314E).
T6 construct: PPARγ LBD (residues 195–477 in PPARγ1 numbering) was cloned into the expression vector pET-28b(+); made in house; host or cells: Escherichia coli Rosetta 2(DE3)
T6 sequence (P37231 195-477 isoform P37231-2 Q286E): T1 sequence (P37231 195-477 isoform P37231-2 Q286P) with P92E
Description: ITC binding of endogenous ligands to PPARγ LBD Q286E. The conditions noted are these: PBS pH 7.2, 25 °C, ligand 0.9 mM. The protocol:
as §1, §2

The next test deals with T7, PPARγ LBD R288C (Homo sapiens, UniProt P37231, R316C).
T7 construct: PPARγ LBD (residues 195–477 in PPARγ1 numbering) was cloned into the expression vector pET-28b(+); made in house; host or cells: Escherichia coli Rosetta 2(DE3)
T7 sequence (P37231 195-477 isoform P37231-2 R288C): T1 sequence (P37231 195-477 isoform P37231-2 Q286P) with P92Q, R94C
As to the kind of experiment: ITC binding of endogenous ligands to PPARγ LBD R288C. The settings on record: PBS pH 7.2, 25 °C, ligand 0.9 mM. The protocol: as §1, §2

In a further test the target is T8, PPARγ LBD C285Y (Homo sapiens, UniProt P37231, C313Y).
T8 construct: PPARγ LBD (residues 195–477 in PPARγ1 numbering) was cloned into the expression vector pET-28b(+); made in house; host or cells: Escherichia coli Rosetta 2(DE3)
T8 sequence (P37231 195-477 isoform P37231-2 C285Y): T1 sequence (P37231 195-477 isoform P37231-2 Q286P) with C91Y, P92Q
Description: ITC binding of endogenous ligands to PPARγ LBD C285Y. The settings on record: PBS pH 7.2, 25 °C, ligand 0.9 mM. The protocol:
as §1, §2

Another test addresses T9, PPARγ LBD R288H (Homo sapiens, UniProt P37231, R316H).
T9 construct: PPARγ LBD (residues 195–477 in PPARγ1 numbering) was cloned into the expression vector pET-28b(+); made in house; host or cells: Escherichia coli Rosetta 2(DE3)
T9 sequence (P37231 195-477 isoform P37231-2 R288H): T1 sequence (P37231 195-477 isoform P37231-2 Q286P) with P92Q, R94H
Description: ITC binding of endogenous ligands to PPARγ LBD R288H. The conditions noted are these: PBS pH 7.2, 25 °C, ligand 0.9 mM. The protocol:
as §1, §2

A further test concerns RXRα LBD. As to the kind of experiment: SPR heterodimerization of PPARγ LBD proteins with immobilized RXRα LBD. The test is classed as binding. The protocol:
The transcriptional activity of PPARγ is regulated by heterodimer formation with RXRα and the recruitment of co-regulators.
(§3) The binding affinities of PPARγ LBD with lobeglitazone, RXRα and MED1 were investigated by SPR kinetics experiments. All SPR experiments were conducted at 25 °C in a Biacore T200 system (GE Healthcare). For immobilization, an amine coupling kit containing 0.1 M N-hydroxysuccinimide and 0.4 M 1-ethyl-3-(3-dimethylaminopropyl) carbodiimide hydrochloride on a CM5 sensor chip with HBS-EP (HEPES-buffered saline with EDTA and surfactant P20) buffer (10 mM HEPES pH 7.5, 150 mM NaCl, 3 mM EDTA, 0.005% tween 20) was used according to the manufacturer’s protocol (GE Healthcare). […] The remaining activated carboxyl groups on the CM5 sensor chip surface were deactivated with 1 M ethanolamine at pH 8.5 for 400 s. The control experiment was treated identically with reference flow cell 1 or 3 without proteins and the response by the control was subtracted from each sample dataset. […] The sensor chip surface was regenerated for 5 s with 5 mM NaOH between cycles. […] The SPR response data were fit to the simple bimolecular 1:1 Langmuir isotherm binding model to determine the equilibrium dissociation constant (KD) using Biacore T200 evaluation software 3.0 (GE Healthcare).

A further test concerns MED1 peptide. As to the kind of experiment: SPR binding of PPARγ LBD proteins to immobilized MED1 co-activator peptide. The protocol:
Next, we evaluated the interaction between PPARγ LBD and MED1 co-activator peptides containing the LXXLL motif, where X represents any amino acid residue, by SPR (Figure 3D–F and Figure S8).
as §3
On the technique in general: Surface plasmon resonance follows binding to a sensor surface in real time, without labels.

In test [1] the target is MED1 co-activator peptide containing the LXXLL motif. As to the kind of experiment: SPR; MED1 peptide amine-coupled to a CM5 chip (about 60 RU); PPARγ LBD WT or mutant injected at 78 nM to 10 μM, 30 μL/min, 120 s, dissociation 400 s; Biacore T200, 25 °C; 50 mM Tris-HCl pH 7.5, 150 mM NaCl, 1 mM TCEP, 0.005% tween 20; 1:1 Langmuir model.
Test [2] has as its target T10, PPARγ LBD WT (peroxisome proliferator-activated receptor gamma ligand-binding domain, wild-type) (human, UniProt P37231-2 195-477).
T10 construct: numbers count on: the PPARγ1 isoform; pET-28b(+) between Nde1 and Xho1; also called PPARγ WT; source: E. coli Rosetta 2(DE3), purified (Ni2+ HiTrap chelating, thrombin cleavage, Superdex200 gel filtration); not shown: His6, N-terminal, cleaved
T10 sequence (looked up): T1 sequence (P37231 195-477 isoform P37231-2 Q286P) with P92Q
Description: SPR; RXRα LBD amine-coupled to a CM5 chip (about 600 RU); PPARγ LBD WT or mutant injected, 30 μL/min, 120 s, dissociation 500 s; Biacore T200, 25 °C; 50 mM Tris-HCl pH 7.5, 150 mM NaCl, 1 mM TCEP, 0.005% tween 20; 1:1 Langmuir model. The settings on record: both partners purified.

Positions count from the first letter of the chain named.

The text below walks through data of article PMC7761077, “Differential Effects of Cancer-Associated Mutations Enriched in Helix H3 of PPARγ” (Cancers, 2020).

On to `CCCCC[C@H](O)/C=C/C=C\CCCCCCCC(=O)O` [13S-HODE, 13S-hydroxy-9Z,11E-octadecadienoic acid], for which the Kd on PPARγ LBD Q286P was more than 201 µM; on PPARγ LBD F287Y it was 27.7 µM; on PPARγ LBD WT, 14.6 µM; on PPARγ LBD R280C it was more than 201 µM; on PPARγ LBD S289C, more than 201 µM; at PPARγ LBD Q286E, 45.9 µM. Besides, the Kd on PPARγ LBD R288C is more than 201 µM; on PPARγ LBD C285Y, 42.7 µM; on PPARγ LBD R288H, 67.1 µM.

As to “PPARγ LBD WT: recombinant human PPARγ ligand-binding domain (residues 195–477), wild-type”, in the test with RXRα LBD, the “ka for RXRα LBD” value came out at 396000 M⁻¹ s⁻¹ and the “kd for RXRα LBD” value came to 0.0223 s⁻¹. Moreover, binding on RXRα LBD (25 °C, RXRα LBD immobilized) was characterised by a dissociation constant (Kd) of 0.0579 µM. Further, in the test on MED1 peptide, the “ka for MED1 peptide” value is 146000 M⁻¹ s⁻¹ and the “kd for MED1 peptide” value was determined as 1.24 s⁻¹. At MED1 peptide (25 °C, MED1 peptide immobilized), the Kd came out at 8.45 µM.

In test [1], “PPARγ LBD WT (peroxisome proliferator-activated receptor gamma ligand-binding domain, wild-type) (from UniProt P37231-2 195-477) (domain or fragment)” returned a Kd of 8.45 µM.

For the molecule “PPARγ LBD Q286E (from UniProt P37231-2 195-477) (domain or fragment)”, in [1], the Kd was determined as 5.61 µM.

Take `CCCCCC=CC=C1C(=O)C=C[C@@H]1CC=CCCCC(=O)O` [15d-PGJ2, 15-deoxy-∆^12,14-prostaglandin J2]: the Kd is 201 µM at PPARγ LBD Q286P; 65.3 µM at PPARγ LBD F287Y; 51 µM at PPARγ LBD WT; more than 201 µM on PPARγ LBD R280C; 42.9 µM on PPARγ LBD S289C; 162 µM at PPARγ LBD C285Y. The molecule also returned a Kd on PPARγ LBD R288H of more than 201 µM.

B1: RXRα LBD (retinoid X receptor α ligand-binding domain) (domain or fragment, UniProt P19793 223-462, looked up)
chain: TSSANEDMPVERILEAELAVEPKTETYVEANMGLNPSSPNDPVTNICQAADKQLFTLVEWAKRIPHFSELPLDDQVILLRAGWNELLIASFSHRSIAVKDGILLATGLHVHRNSAHSAGVGAIFDRVLTELVSKMRDMQMDKTELGCLRAIVLFNPDSKGLSNPAEVEALREKVYASLEAYCKHKYPEQPGRFAKLLLRLPALRSIGLKCLEHLFFFKLIGDTPIDTFLMEMLEAPHQMT
As to B1, in test [2], the Kd worked out at 0.0579 µM.

One may read the Kd as the concentration at which binding is half-saturated. A low value points to higher affinity.
